Data: patent US20250092044A1, “Kinase Inhibitors” (Incyte Corporation, priority 2023, published 2025)

Key:
FLT3 [1] = molecular target: FLT3 (Homo sapiens (Human), UniProt P36888); test: FLT3 Enzymatic Assay; assay type: biochemical; conditions: 1 mM ATP
Description: (§1) The kinase assays were carried out at room temperature in assay buffer (HEPES 50 mM, pH 7.0, NaN3 0.02%, BSA 0.01%, Orthovanadate 0.1 mM, DTT 1 mM, MgCl2 10 mM) in a final volume of 10 μL. Testing compounds were prepared by serial dilution in DMSO and transferred to the plate wells by ECHO liquid handler (Labcyte) with 0.5% DMSO in the final assay. […]. Reactions were initiated by the addition of 5 μL ATP in assay buffer. The final 10 μL kinase reaction consists of 0.011 nM FLT3, 1 mM ATP, 500 nM TK Substrate-biotin and SEB reagent 62.5 nM in assay buffer. […] The plates were then sealed and centrifuged at 1800 rpm for 2 minutes. After 60 minutes incubation at room temperature, the product activity was determined by measuring the fluorescence at 620 nm and 665 nm on Pherastar microplate reader (BMG Labtech). A ratio is calculated (665/620 nm) for each well. Wells with DMSO only were served as the positive controls and wells containing no ATP were used as negative controls. IC50 determination was performed by fitting the curve of percent control activity versus the log of the compound concentration using the GraphPad Prism 7.0 software.

FLT3 [2] = test: FLT3 Enzymatic Assay; assay type: biochemical
Description: as §1

TRKA [3] = test: TRKA Enzymatic Assay; assay type: biochemical
Description: (§2) The kinase assays were carried out at 24° C. temperature in assay buffer (HEPES 50 mM, pH 7.0, NaN3 0.02%, BSA 0.01%, Orthovanadate 0.1 mM, DTT 1 mM, MgCl2 10 mM) in a final volume of 10 μL. Testing compounds were prepared by serial dilution in DMSO and transferred to the plate wells by ECHO liquid handler (Labcyte) with 0.5% DMSO in the final assay. […]. Reactions were initiated by the addition of 5 μL ATP in assay buffer. The final 10 μL kinase reaction consisted of 0.58 nM TRKA, 1 mM ATP, 500 nM TK Substrate-biotin and SEB reagent 62.5 nM in assay buffer. […] After 60 minutes incubation at room temperature, the product activity was determined by measuring the fluorescence at 620 nm and 665 nm on Pherastar microplate reader (BMG Labtech). A ratio was calculated (665/620 nm) for each well. Wells with DMSO only served as the positive controls and wells containing no ATP were used as negative controls. IC50 determination was performed by fitting the curve of percent control activity versus the log of the compound concentration using the Gene data.

TRKA [4] = molecular target: TRKA (Homo sapiens (Human), UniProt P04629); test: TRKA Enzymatic Assay; assay type: biochemical; conditions: 1 mM ATP
Sequence of TRKA (Homo sapiens (Human), UniProt P04629) (P04629 33-796, species assumed): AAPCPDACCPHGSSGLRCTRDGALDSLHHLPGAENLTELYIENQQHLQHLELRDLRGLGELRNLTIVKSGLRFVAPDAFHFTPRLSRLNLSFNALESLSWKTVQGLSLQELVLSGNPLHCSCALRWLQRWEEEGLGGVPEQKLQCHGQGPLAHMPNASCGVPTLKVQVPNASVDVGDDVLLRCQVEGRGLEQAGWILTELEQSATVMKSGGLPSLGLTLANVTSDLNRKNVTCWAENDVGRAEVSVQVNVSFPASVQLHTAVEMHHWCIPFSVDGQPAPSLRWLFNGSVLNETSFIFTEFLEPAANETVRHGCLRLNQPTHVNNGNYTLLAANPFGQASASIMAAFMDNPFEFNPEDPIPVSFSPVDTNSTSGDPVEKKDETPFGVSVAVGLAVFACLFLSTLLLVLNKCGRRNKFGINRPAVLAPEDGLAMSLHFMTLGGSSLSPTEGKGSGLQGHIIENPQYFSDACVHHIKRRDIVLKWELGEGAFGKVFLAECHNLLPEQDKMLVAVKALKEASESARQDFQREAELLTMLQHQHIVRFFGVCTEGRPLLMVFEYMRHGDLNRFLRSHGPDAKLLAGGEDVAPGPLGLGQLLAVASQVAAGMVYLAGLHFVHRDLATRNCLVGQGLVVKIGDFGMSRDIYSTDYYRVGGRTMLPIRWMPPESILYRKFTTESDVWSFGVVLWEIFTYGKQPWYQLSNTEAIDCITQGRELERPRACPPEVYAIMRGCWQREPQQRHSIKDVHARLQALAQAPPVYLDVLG
Description: as §2

[5] = molecular target: pseudo-kinase domain (JH2) of human V617F mutant JAK2 (Homo sapiens (Human), UniProt O60674, F794H/V617F/W659A/W777A); test: JAK2 LanthaScreen JH2-V617F Binding Assay; conditions: read-out: JH2 V617F Bind IC50
Sequence of pseudo-kinase domain (JH2) of human V617F mutant JAK2 (O60674 536-812 V617F/W659A/W777A/F794H): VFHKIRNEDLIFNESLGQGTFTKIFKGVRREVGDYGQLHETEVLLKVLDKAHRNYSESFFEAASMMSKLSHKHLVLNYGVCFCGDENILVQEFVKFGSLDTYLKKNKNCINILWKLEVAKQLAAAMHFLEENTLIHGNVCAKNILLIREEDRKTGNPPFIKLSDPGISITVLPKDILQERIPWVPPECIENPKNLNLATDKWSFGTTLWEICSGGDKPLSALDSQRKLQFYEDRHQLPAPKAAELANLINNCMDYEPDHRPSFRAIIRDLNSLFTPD
Description: JAK2 JH2-V617F binding assay utilizes pseudo-kinase domain (JH2, amino-acids 536-812 with 3 surface mutations W659A, W777A, F794H) of human V617F mutant JAK2 expressed as C-terminal His-Avi-tagged, biotinylated protein in a baculovirus expression system (BPS Bioscience, Catalog #79498). The assay was conducted in black 384-well polystyrene plates in a final reaction volume of 20 μL. JAK2 JH2-V617F (0.26 nM) was incubated with compounds (100 nL serially diluted in DMSO) in the presence of 50 nM Fluorescent JAK2-JH2 Tracer (MedChem Express Catalog #HY-102055) and 0.25 nM Streptavidin-Tb cryptate (Cisbio Part #610SATLB) in assay buffer (50 mM Tris, pH=7.5, 10 mM MgCl2, 0.01% Brij-35, 0.1% BSA, 1 mM EGTA, 5% Glycerol and 5 mM DTT). Non-specific binding was accessed in the presence of 2 mM ATP. After incubation for 1 hour at 25° C., LanthaScreen signals were read on a PHERAstar FS plate reader (BMG LABTECH). Data was analyzed with IDBS XLfit and GraphPad Prism 5.0 software using a four parameter dose response curve to determine IC50 for each compound.

[6] = molecular target: catalytic domain (JH1) of human JAK2 (Homo sapiens (Human), UniProt O60674); test: JAK2 LanthaScreen JH1 Binding Assay; conditions: read-out: JH1 Bind IC50
Sequence of catalytic domain (JH1) of human JAK2 (O60674 826-1132): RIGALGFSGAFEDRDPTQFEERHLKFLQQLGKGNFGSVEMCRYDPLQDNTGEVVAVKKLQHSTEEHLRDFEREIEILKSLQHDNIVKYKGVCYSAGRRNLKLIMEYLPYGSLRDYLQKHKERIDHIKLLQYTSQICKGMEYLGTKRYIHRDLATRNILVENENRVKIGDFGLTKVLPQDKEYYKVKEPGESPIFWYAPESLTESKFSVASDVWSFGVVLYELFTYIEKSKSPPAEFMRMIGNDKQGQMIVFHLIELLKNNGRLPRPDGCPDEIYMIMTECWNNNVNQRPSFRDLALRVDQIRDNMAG
Description: JAK2 JH1 binding assay utilizes catalytic domain (JH1, amino acids 826-1132) of human JAK2 expressed as N-terminal FLAG-tagged, biotinylated protein in a baculovirus expression system (Carna Biosciences, Product #08-445-20N). The assay was conducted in black 384-well polystyrene plates in a final reaction volume of 20 μL. JAK2 JH1 (1.5 nM) was incubated with compounds (100 nL serially diluted in DMSO) in the presence of 50 nM fluorescent JAK2-JH1 tracer and 0.5 nM Streptavidin-Tb cryptate (Cisbio Part #610SATLB) in assay buffer (50 mM Tris, pH=7.5, 10 mM MgCl2, 0.01% Brij-35, 0.1% BSA, 1 mM EGTA, 5% Glycerol and 5 mM DTT). Non-specific binding was accessed in the presence of 2 mM ATP. After incubation for 2 hours at 25° C., LanthaScreen signals were read on a PHERAstar FS plate reader (BMG LABTECH). Data was analyzed with IDBS XLfit and GraphPad Prism 5.0 software using a four parameter dose response curve to determine IC50 for each compound.

[7] = tested on: STAT5 (Tyr694) phosphorylation in SET-2 cells; test: STAT5 (Tyr694) Phosphorylation Cell Based Assay; conditions: Homo sapiens, 2 hours, read-out: SET2 IC50
Description: SET-2 cells was purchased from DSMZ (Germany). RPMI1640 medium, Fetal Bovine Serum and 384-white sold flat-bottom small volume plate were purchased from Thermo Fisher Scientific (Waltham, MA). Phospho-STAT5 (Tyr694) HTRF kit was purchased from Perkin Elmer (Waltham, MA).
SET-2 cells were cultured in RPMI media with 20% FBS at 37° C. in humidified incubator supplied with 5% CO2. On the day of assay, the cells were centrifuged to remove the culture media and resuspended with prewarmed RPMI with 10% FBS. Testing compounds were prepared by serial dilution in DMSO and 50 nL/well test compounds were transferred to the 384 white low volume cell culture plate (Greiner Bio-one) by ECHO liquid handler (Labcyte). The cells were then dispensed with Multidrop (Thermo Fisher, Waltham, MA) at 10 μL/well (7×10^6 cells/mL) with 0.5% DMSO in the final assay. After the treated cells were incubated for 2 hours at 37° C./5% CO2 incubator, 4 μL/well supplemented lysis buffer (100× blocking buffer diluted 25 fold in 4× lysis buffer, Perkin Elmer) were added and incubated at room temperature for 90 min on orbital shaker at 600 rpm. Phospho-STAT5 Cryptate antibody and Phospho-STAT5 d2 antibody (1:1 vol/vol) were premixed and diluted 20 fold with in the detection buffer (Perkin Elmer). 4 μL of the premixed antibody solution were added to each well followed with 24 hours incubation at room temperature on orbital shaker at 600 rpm. The product activity was determined by measuring the fluorescence at 620 nm and 665 nm on Pherastar microplate reader (BMG Labtech). A ratio is calculated (665/620) for each well. Wells with DMSO only served as the positive controls and wells containing high concentration of control compound were used as negative controls. IC50 determination was performed by fitting the curve of percent control activity versus the log of the compound concentration using the GraphPad Prism 7.0 software.

Sequence of FLT3 (Homo sapiens (Human), UniProt P36888) (P36888 27-993, species assumed): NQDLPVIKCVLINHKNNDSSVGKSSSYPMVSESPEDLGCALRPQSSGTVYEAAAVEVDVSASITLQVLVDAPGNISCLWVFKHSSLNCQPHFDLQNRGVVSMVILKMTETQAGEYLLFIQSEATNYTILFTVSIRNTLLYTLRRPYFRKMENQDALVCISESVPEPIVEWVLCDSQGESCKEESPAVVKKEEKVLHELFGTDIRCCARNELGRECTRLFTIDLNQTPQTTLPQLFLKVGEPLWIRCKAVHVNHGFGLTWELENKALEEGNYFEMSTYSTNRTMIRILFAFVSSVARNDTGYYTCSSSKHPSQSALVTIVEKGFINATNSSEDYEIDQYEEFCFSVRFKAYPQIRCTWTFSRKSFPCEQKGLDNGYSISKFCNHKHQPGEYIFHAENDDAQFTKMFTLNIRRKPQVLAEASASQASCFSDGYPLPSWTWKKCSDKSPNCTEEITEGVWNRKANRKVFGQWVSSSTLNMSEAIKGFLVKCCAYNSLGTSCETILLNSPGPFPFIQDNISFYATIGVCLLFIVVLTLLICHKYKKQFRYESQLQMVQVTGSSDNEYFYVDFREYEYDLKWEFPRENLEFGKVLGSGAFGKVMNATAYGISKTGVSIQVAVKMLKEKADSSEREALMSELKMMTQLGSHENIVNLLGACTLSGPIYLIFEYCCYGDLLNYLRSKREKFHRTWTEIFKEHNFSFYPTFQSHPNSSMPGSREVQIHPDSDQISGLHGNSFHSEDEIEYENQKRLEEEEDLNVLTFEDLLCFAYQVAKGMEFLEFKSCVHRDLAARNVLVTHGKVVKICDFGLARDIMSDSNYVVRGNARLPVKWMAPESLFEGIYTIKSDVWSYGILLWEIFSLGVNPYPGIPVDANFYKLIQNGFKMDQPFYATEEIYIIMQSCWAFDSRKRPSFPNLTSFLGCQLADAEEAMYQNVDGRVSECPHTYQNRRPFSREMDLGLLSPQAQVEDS

SMILES	IC50 (FLT3 [1])	Selectivity FLT3/JH2 V617F (FLT3 [2])	Selectivity TRKA/JH2 V617F (TRKA [3])	IC50 (TRKA [4])	IC50 [5]	IC50 [6]	IC50 [7]
COC(=O)N[C@@H]1CC[C@@H](n2c(=O)n(C)c3cnc4[nH]c(-c5ccc(C(=O)NCCCNc6ccccc6)c(F)c5)c(-c5ccc6c(cnn6C(C)C)c5)c4c32)C1 [Example 7, Methyl ((1R,3R)-3-(7-(3-fluoro-4-((3-(phenylamino)propyl)carbamoyl)phenyl)-8-(1-isopropyl-1H-indazol-5-yl)-3-methyl-2-oxo-3,6-dihydroimidazo[4,5-d]pyrrolo[2,3-b]pyridin-1(2H)-yl)cyclopentyl)carbamate]	> 2500 nM	***** (selectivity of >5000-fold to ≤12500-fold)	***** (selectivity of >5000-fold to ≤12500-fold)	> 2500 nM	≤ 10 nM	> 1000 nM	> 800 nM
CCNC(=O)c1ccc(-c2[nH]c3ncc4c(c3c2-c2ccc3c(cnn3C(C)C)c2)n([C@@H]2CC[C@@H](NC(=O)OC)C2)c(=O)n4C)cc1OC [Example 18, Methyl ((1R,3R)-3-(7-(4-(ethylcarbamoyl)-3-methoxyphenyl)-8-(1-isopropyl-1H-indazol-5-yl)-3-methyl-2-oxo-3,6-dihydroimidazo[4,5-d]pyrrolo[2,3-b]pyridin-1(2H)-yl)cyclopentyl)carbamate]	250 to 1250 nM	**** (selectivity of >1750-fold to ≤5000-fold)	***** (selectivity of >5000-fold to ≤12500-fold)	1250 to 2500 nM	≤ 10 nM	> 1000 nM	≤ 300 nM
COCCNC(=O)c1ccc(-c2[nH]c3ncc4c(c3c2-c2ccc3c(cnn3C(C)C)c2)n([C@@H]2CC[C@@H](NC(=O)OC)C2)c(=O)n4C)cc1 [Example 19, Methyl ((1R,3R)-3-(8-(1-isopropyl-1H-indazol-5-yl)-7-(4-((2-methoxyethyl)carbamoyl)phenyl)-3-methyl-2-oxo-3,6-dihydroimidazo[4,5-d]pyrrolo[2,3-b]pyridin-1(2H)-yl)cyclopentyl)carbamate]	250 to 1250 nM	**** (selectivity of >1750-fold to ≤5000-fold)	****** (selectivity of >12500-fold)	1250 to 2500 nM	≤ 10 nM	> 1000 nM	≤ 300 nM
COC(=O)N[C@@H]1CC[C@@H](n2c(=O)n(C)c3cnc4[nH]c(-c5ccc(C(=O)N6CCOCC6)cc5)c(-c5ccc6c(cnn6C(C)C)c5)c4c32)C1 [Example 20, Methyl ((1R,3R)-3-(8-(1-isopropyl-1H-indazol-5-yl)-3-methyl-7-(4-(morpholine-4-carbonyl)phenyl)-2-oxo-3,6-dihydroimidazo[4,5-d]pyrrolo[2,3-b]pyridin-1(2H)-yl)cyclopentyl)carbamate]	250 to 1250 nM	***** (selectivity of >5000-fold to ≤12500-fold)	***** (selectivity of >5000-fold to ≤12500-fold)	250 to 1250 nM	≤ 10 nM	> 1000 nM	≤ 300 nM
COC(=O)N[C@@H]1CC[C@@H](n2c(=O)n(C)c3cnc4[nH]c(-c5ccc(C(=O)N(C)C)cc5)c(-c5ccc6c(cnn6C(C)C)c5)c4c32)C1 [Example 22, Methyl ((1R,3R)-3-(7-(4-(dimethylcarbamoyl)phenyl)-8-(1-isopropyl-1H-indazol-5-yl)-3-methyl-2-oxo-3,6-dihydroimidazo[4,5-d]pyrrolo[2,3-b]pyridin-1(2H)-yl)cyclopentyl)carbamate]	250 to 1250 nM	***** (selectivity of >5000-fold to ≤12500-fold)	***** (selectivity of >5000-fold to ≤12500-fold)	250 to 1250 nM	≤ 10 nM	> 1000 nM	≤ 300 nM
COC(=O)N[C@@H]1CC[C@@H](n2c(=O)n(C)c3cnc4[nH]c(-c5ccc(C(=O)N6CCC(F)(F)CC6)c(F)c5)c(-c5ccc6c(cnn6C(C)C)c5)c4c32)C1 [Example 24, Methyl ((1R,3R)-3-(7-(4-(4,4-difluoropiperidine-1-carbonyl)-3-fluorophenyl)-8-(1-isopropyl-1H-indazol-5-yl)-3-methyl-2-oxo-3,6-dihydroimidazo[4,5-d]pyrrolo[2,3-b]pyridin-1(2H)-yl)cyclopentyl)carbamate]	> 2500 nM	****** (selectivity of >12500-fold)	****** (selectivity of >12500-fold)	> 2500 nM	≤ 10 nM	> 1000 nM	300 to 800 nM
